Reference: patent US20060074243A1, “Hydroxamic acid and amide compounds and their use as protease inhibitors” (Pharmacia Corporation, priority 2002, published 2006)

Key:
[1] = biological target: T1, Human recombinant MMP-2 (Homo sapiens, UniProt P08253); test: In vitro MMP inhibition analysis (fluorogenic peptide substrate cleavage), Ki; assay type: biochemical; details: Table 2
T1 construct: made in house; host or cells: MMP-2-transfected p2AHT2 cells
T1 sequence (P08253 110-660): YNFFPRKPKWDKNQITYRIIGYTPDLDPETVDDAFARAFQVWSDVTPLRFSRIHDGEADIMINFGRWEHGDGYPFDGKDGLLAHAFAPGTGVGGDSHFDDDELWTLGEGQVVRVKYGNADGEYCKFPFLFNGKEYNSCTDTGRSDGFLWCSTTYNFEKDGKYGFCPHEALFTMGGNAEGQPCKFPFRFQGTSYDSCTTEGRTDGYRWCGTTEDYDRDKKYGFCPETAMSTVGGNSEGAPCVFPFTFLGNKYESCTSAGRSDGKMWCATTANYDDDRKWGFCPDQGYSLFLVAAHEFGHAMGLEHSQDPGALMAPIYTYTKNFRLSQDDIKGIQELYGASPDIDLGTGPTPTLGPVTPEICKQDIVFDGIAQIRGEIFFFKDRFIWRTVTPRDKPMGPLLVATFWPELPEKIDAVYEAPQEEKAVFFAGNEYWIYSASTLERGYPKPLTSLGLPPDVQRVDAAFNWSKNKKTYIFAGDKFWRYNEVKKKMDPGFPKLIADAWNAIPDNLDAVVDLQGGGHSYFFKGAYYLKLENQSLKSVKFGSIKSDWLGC
In short: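 Human recombinant MMP-2 from transfected p2AHT2 cells was activated with APMA or trypsin and incubated 1 h at room temperature with compounds and 4 μM MCA-RPLGL(Dpa)ARER-NH2. Buffer was pH 7.5 Tris/NaCl/CaCl2, and fluorescence was read at ex 330/em 420 nm. Ki was fitted by Morrison's equation without substrate correction.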

[2] = biological target: T2, Human recombinant MMP-13 (Homo sapiens, UniProt P45452); test: as above; assay type: biochemical; details: Table 2
T2 construct: made in house; host or cells: baculovirus / insect cells
In short: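 Baculovirus-expressed full-length MMP-13 proenzyme was purified on heparin-agarose and zinc-chelate columns, then APMA-activated. It cleaved 4 μM MCA/Dpa fluorogenic peptide in 100 mM Tris-HCl, 100 mM NaCl, 10 mM CaCl2, 0.05% Brij-23, pH 7.5, for 1 h at room temperature (ex 330/em 420 nm). Ki came from Morrison-equation fits with substrate ≤Km, uncorrected.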

Structure (SMILES) | Ki [1] | Ki [2]
COCCOc1ccc(-c2ccc(S(=O)(=O)C3(C(=O)NO)CCN(C4CC4)CC3)cc2)cc1 [Example 113] | 0.17 nM | 0.031 nM
CCN1CCC(C(=O)NO)(S(=O)(=O)c2ccc(-c3ccc(OCCOC)cc3)cc2)CC1 [Example 111] | 0.645 nM | 0.066 nM
CCCCc1nc(-c2ccc(S(=O)(=O)C3(C(=O)NO)CCOCC3)cc2)no1 [Example 105] | 5.79 nM | 3.67 nM
COCCN1CCC(C(=O)NO)(S(=O)(=O)c2ccc(-c3ccc(OCCN4CCCC4)cc3)cc2)CC1 [Example 72] | 5.81 nM | 2.25 nM
CCOCCOc1ccc(-c2ccc(S(=O)(=O)C3(C(=O)NO)CCN(CCOC)CC3)cc2)cc1 [Example 117] | 0.208 nM | 0.037 nM
CC(C)CCc1ccc(-c2ccc(S(=O)(=O)C3(C(=O)NO)CCOCC3)cc2)nc1 [Example 99] | 0.112 nM | 0.052 nM
COCCOc1ccc(-c2ccc(S(=O)(=O)C3(C(=O)NO)CCN(C4CC4)CC3)cc2)cc1F [Example 112] | 0.168 nM | 0.058 nM
CCN1CCC(C(=O)NO)(S(=O)(=O)c2ccc(-c3ccc(OCCOC)c(F)c3)cc2)CC1 [Example 110] | 0.539 nM | 0.144 nM
CC(C)CCOc1ccc(-c2ccc(S(=O)(=O)C3(C(=O)NO)CCOCC3)cc2)cc1 [Example 108] | 0.497 nM | 0.199 nM
COc1ccc(-c2ccc(S(=O)(=O)C3(C(=O)NO)CCOCC3)cc2)cc1F [Example 102] | 0.078 nM | 0.075 nM
O=C(NO)C1(S(=O)(=O)c2ccc(-c3cnccn3)cc2)CCOCC1 [Example 71] | 5.96 nM | 1.73 nM
CCCCCc1ccc(-c2ccc(S(=O)(=O)C3(C(=O)NO)CCOCC3)cc2)c(F)c1 [Example 101] | 0.878 nM | 0.4 nM
COCCOc1ccc(-c2ccc(S(=O)(=O)C3(C(=O)NO)CCN(CCOC)CC3)cc2)cc1 [Example 115] | 0.276 nM | 0.025 nM
O=C(NO)C1(S(=O)(=O)c2ccc(-c3ccc(-c4ccccc4)cc3)cc2)CCOCC1 [Example 104] | 0.087 nM | 0.032 nM
COC(C)CCOc1ccc(-c2ccc(S(=O)(=O)C3(C(=O)NO)CCOCC3)cc2)cc1C(F)(F)F (centres unmarked) [Example 100] | 32.5 nM | 9.4 nM
O=C(NO)C1(S(=O)(=O)c2ccc(-c3ccc(CCO)cc3)cc2)CCOCC1 [Example 98] | 0.158 nM | 0.147 nM
COCCOc1ccc(-c2ccc(S(=O)(=O)C3(C(=O)NO)CCN(CCOC)CC3)cc2)cc1F [Example 114] | 0.217 nM | 0.042 nM
CCOCCOc1ccc(-c2ccc(S(=O)(=O)C3(C(=O)NO)CCN(CC)CC3)cc2)cc1 [Example 116] | 0.514 nM | 0.05 nM
CC(C)Cc1ccc(-c2ccc(S(=O)(=O)C3(C(=O)NO)CCOCC3)cc2)nc1 [Example 103] | 0.278 nM | 0.117 nM
